Test results reported in ChEMBL document CHEMBL1201862, “PubChem BioAssay data set” (2004).
Activity calls are given as the source filed them.

Columns and labels:
Procathepsin L = Procathepsin L (Homo sapiens, UniProt P07711)
Aspartyl aminopeptidase = Aspartyl aminopeptidase (Plasmodium falciparum 3D7, UniProt Q8I2J3)
[1] = target: Alkaline phosphatase, placental type (Homo sapiens, UniProt P05187); assay: human placental alkaline phosphatase inhibition – biochemical, luminescence, confirmation (AID 1512); assay type: functional
[2] = Luminescence Cell-Based Dose Retest to Confirm Inhibitors of Cancer Stem Cells. [Related pubchem assays (depositor defined):AID2717, AID2721]; assay type: functional; settings: Homo sapiens
[3] = target: Lysosomal acid glucosylceramidase (Homo sapiens, UniProt P04062); assay: Dose response cell-based high throughput screening assay to identify enhancers of beta-glucosidase activity. [Related pubchem assays: 784 ]; assay type: functional
Lysosomal acid glucosylceramidase, sequence (P04062 whole entry): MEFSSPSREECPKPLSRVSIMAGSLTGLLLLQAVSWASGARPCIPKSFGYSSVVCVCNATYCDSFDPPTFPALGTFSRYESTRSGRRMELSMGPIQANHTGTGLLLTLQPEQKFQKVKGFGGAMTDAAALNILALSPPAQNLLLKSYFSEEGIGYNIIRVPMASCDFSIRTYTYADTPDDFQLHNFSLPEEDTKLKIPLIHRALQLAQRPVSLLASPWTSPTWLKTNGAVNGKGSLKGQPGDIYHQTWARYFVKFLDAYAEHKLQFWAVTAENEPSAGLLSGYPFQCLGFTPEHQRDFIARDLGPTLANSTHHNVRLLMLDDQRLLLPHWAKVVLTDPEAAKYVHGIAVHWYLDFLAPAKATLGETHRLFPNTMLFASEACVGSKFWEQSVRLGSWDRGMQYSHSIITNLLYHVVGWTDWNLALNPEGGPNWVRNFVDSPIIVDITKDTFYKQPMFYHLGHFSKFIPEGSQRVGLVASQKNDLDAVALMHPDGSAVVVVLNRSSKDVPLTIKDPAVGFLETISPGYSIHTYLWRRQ

[4] = target: T1, Eukaryotic translation initiation factor 2-alpha kinase 3 (Homo sapiens, UniProt Q9NZJ5); assay: Dose response cell-based high-throughput screening assay to measure PERK inhibition. [Related pubchem assays: 1416 ]; assay type: functional
T1 sequence (Q9NZJ5 whole entry): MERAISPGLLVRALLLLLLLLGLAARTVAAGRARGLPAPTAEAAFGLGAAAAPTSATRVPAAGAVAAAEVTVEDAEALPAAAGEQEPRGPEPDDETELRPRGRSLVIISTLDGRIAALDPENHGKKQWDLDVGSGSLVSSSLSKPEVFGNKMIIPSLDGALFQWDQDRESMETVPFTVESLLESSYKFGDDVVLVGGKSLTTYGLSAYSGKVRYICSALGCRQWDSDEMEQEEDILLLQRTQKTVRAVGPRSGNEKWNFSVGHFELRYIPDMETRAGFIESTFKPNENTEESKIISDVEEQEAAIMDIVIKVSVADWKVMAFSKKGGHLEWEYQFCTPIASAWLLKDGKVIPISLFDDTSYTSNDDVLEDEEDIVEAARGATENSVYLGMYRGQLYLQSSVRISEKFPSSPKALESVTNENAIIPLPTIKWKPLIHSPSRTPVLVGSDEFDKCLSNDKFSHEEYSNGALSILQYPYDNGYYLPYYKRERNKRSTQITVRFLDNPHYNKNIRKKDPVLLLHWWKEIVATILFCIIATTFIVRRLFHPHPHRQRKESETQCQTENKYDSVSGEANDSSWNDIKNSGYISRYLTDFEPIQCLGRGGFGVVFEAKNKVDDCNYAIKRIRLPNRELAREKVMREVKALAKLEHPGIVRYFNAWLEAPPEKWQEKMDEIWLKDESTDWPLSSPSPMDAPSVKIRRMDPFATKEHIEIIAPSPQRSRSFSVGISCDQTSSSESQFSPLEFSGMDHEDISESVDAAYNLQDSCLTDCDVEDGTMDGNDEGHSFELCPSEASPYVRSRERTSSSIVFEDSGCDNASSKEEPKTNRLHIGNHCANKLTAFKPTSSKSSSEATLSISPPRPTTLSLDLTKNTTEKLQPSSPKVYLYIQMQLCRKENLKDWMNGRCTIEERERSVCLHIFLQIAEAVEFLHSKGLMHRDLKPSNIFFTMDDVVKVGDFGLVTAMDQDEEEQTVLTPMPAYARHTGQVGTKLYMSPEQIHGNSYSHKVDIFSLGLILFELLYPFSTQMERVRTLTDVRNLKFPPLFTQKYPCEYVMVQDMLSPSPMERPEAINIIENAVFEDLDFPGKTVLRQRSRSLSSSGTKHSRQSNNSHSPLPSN

[5] = target: T1, Eukaryotic translation initiation factor 2-alpha kinase 3; assay: Counterscreen assay for PERK inhibitors: Dose response cell-based high throughput screening assay to measure inhibition of PERK at 6 hours. [Related pubchem assays: 1522, 1416 ]; assay type: functional
[6] = target: Metabotropic glutamate receptor 4 (Rattus norvegicus, UniProt P31423); assay: Modulation of the Metabotropic Glutamate Receptor mGluR4: Rat PAM Potency. [Related pubchem assays (depositor defined):AID2437, AID2807]; assay type: functional
Metabotropic glutamate receptor 4, sequence (P31423 whole entry): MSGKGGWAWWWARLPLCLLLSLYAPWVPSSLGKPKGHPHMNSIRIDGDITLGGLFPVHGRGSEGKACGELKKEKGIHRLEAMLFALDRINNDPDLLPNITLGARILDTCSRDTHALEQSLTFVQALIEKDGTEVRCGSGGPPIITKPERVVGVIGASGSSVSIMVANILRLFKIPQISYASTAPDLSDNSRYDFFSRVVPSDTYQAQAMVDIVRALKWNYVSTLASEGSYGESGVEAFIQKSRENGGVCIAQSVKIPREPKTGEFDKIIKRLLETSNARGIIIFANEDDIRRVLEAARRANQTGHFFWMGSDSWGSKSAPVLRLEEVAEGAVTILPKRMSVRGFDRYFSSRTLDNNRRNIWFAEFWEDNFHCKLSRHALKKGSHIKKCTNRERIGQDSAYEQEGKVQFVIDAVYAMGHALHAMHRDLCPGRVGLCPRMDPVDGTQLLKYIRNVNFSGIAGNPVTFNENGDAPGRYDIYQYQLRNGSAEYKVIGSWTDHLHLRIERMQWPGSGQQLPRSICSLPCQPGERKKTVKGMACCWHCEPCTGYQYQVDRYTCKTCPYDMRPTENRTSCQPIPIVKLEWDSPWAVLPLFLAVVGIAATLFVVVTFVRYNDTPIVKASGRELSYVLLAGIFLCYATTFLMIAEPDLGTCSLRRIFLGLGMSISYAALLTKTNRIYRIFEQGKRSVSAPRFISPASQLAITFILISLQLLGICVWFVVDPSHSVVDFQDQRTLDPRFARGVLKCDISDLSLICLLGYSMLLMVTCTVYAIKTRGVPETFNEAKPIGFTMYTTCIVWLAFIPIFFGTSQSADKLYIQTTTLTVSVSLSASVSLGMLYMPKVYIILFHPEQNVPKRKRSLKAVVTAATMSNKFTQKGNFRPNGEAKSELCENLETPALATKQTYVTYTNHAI

T-cell = assay: loss of vesicle association with mouse CD8+ T cells – mouse 2C CD8+ T cells, flow cytometry, dose response (AID 485284); assay type: functional
cells [7] = assay: cells
[8] = Vero E6 cell cytotoxicity, dose response, cytotoxicity control for non-replicating M. tuberculosis project, secondary assay (AID 492998); assay type: functional, VeroE6; settings: Vero C1008
INS1 = assay: INS-1E survival protection against cytokine death – cell-based, luminescence, retest, dose response (AID 449756); assay type: functional; settings: Rattus norvegicus;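 note: cell death triggered by IL-1 beta plus TNF-alpha plus IFN-gamma mixture; protective hits raise ATP signal compared with cytokine alone wells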
cells [9] = assay type: functional
[10] = Trypanosoma cruzi growth suppression in host cells – NIH3T3 host cells, beta-gal luminescence, confirmation (AID 2044); assay type: functional, cell-based;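 note: intracellular parasites grown in NIH/3T3 mouse fibroblasts as host cells; luminescent beta-galactosidase reporter signal from transgenic T. cruzi replicating inside host cells; inhibitors lower the luminescence signal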
[11] = A cytotoxicity screen of small molecule inhibitors of the PhoP region in Salmonella typhi identified in the primary screen. [Related pubchem assays: 1850, 1864, 1985 ]; assay type: functional
Trypanosoma cruzi = assay: anti-trypanosomal activity in host cells – cell-based, plate reader, dry powder, set 3, dose response (AID 493197); assay type: functional
[12] = fluconazole-exposed Candida albicans growth modulators – fluorescence, retest, confirmation (AID 2467); assay type: functional, cell-based
[13] = NIH/3T3 cell viability loss – mouse embryonic fibroblasts, dry powder, set 2, cytotoxicity control, dose response (AID 493247); assay type: functional, cell-based; settings: Fibroblast
[14] = THP-1 cell cytotoxicity, dose response, cytotoxicity control for non-replicating M. tuberculosis project (AID 489025); assay type: functional
[15] = HepG2 cell cytotoxicity, dose response, cytotoxicity control for non-replicating M. tuberculosis project (AID 489018); assay type: functional; settings: Mycobacterium tuberculosis
[16] = NIH-3T3 fibroblast cytotoxicity, dose response, cytotoxicity control, cell-based, fluorescence, Alamar Blue, secondary assay (AID 2327); assay type: functional;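 note: NIH-3T3 mouse fibroblasts cultured with fluconazole at 8 µg/mL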
[17] = target: T2, Sphingosine 1-phosphate receptor 4 (Homo sapiens, UniProt O95977); assay: potency of S1P4 activators – cell-based, fluorescence, synthesized compounds, late-stage follow-up (AID 463107); assay type: functional
T2 sequence (O95977 whole entry): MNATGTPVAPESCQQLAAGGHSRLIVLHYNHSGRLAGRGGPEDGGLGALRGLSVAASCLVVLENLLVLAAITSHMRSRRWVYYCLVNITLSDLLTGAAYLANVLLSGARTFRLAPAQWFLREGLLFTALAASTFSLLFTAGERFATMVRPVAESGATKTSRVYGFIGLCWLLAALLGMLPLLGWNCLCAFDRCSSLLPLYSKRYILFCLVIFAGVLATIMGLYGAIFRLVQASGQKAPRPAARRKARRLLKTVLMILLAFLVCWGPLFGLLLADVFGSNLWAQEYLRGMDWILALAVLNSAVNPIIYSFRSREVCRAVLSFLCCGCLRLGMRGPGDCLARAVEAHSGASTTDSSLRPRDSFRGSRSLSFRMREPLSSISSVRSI

HEK293 = assay: cells; settings: Homo sapiens;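 note: cells exposed to compound for 14 hours overnight before viability readout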
[18] = target: Nucleotide-binding oligomerization domain-containing protein 2 (Homo sapiens, UniProt Q9HC29); assay: PubChem AID 2334; assay type: functional
Nucleotide-binding oligomerization domain-containing protein 2, sequence (Q9HC29 whole entry, the tested form may be a part): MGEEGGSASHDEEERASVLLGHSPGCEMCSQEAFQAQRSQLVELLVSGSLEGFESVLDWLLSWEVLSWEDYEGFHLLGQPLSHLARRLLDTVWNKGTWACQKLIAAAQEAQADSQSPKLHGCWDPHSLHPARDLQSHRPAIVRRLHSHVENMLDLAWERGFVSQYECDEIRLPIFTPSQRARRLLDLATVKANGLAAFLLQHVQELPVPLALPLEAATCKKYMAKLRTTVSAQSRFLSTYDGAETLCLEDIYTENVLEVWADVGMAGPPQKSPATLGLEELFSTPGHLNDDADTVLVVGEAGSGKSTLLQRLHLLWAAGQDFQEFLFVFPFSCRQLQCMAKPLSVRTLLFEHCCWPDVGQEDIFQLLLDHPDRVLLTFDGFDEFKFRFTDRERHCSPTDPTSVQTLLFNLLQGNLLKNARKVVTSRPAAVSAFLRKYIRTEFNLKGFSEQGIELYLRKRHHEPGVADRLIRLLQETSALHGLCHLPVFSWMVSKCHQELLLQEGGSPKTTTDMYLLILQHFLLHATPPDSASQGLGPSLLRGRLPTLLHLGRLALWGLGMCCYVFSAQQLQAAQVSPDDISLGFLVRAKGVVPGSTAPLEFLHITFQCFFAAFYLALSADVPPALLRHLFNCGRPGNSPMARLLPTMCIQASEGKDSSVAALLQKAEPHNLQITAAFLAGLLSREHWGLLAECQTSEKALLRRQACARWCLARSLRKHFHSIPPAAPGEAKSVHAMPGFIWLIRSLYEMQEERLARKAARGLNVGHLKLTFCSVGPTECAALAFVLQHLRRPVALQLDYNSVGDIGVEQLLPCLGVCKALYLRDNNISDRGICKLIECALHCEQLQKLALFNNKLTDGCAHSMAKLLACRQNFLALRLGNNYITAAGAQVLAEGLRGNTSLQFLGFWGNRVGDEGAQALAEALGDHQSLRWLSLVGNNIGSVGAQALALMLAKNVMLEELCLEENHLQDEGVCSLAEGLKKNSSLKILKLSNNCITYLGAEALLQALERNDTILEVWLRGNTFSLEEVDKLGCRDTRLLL

Tumor necrosis factor = Tumor necrosis factor (Homo sapiens, UniProt P01375); assay: analog potency on TNFa NF-kB signaling – cell-based, revised, SAR follow-up (AID 2337); assay type: functional
Tumor necrosis factor, sequence (P01375 whole entry, the tested form may be a part): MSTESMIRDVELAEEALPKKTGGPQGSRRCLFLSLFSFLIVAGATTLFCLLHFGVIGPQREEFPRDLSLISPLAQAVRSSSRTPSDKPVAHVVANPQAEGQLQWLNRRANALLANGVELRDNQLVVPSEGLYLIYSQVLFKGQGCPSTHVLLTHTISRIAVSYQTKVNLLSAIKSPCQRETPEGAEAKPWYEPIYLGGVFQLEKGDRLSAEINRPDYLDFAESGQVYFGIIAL

[19] = target: T3, Nucleotide-binding oligomerization domain-containing protein 1 (Homo sapiens, UniProt Q9Y239); assay: blockers of NOD1 pathway activity – revised, SAR follow-up (AID 2333); assay type: functional
T3 sequence (Q9Y239 whole entry): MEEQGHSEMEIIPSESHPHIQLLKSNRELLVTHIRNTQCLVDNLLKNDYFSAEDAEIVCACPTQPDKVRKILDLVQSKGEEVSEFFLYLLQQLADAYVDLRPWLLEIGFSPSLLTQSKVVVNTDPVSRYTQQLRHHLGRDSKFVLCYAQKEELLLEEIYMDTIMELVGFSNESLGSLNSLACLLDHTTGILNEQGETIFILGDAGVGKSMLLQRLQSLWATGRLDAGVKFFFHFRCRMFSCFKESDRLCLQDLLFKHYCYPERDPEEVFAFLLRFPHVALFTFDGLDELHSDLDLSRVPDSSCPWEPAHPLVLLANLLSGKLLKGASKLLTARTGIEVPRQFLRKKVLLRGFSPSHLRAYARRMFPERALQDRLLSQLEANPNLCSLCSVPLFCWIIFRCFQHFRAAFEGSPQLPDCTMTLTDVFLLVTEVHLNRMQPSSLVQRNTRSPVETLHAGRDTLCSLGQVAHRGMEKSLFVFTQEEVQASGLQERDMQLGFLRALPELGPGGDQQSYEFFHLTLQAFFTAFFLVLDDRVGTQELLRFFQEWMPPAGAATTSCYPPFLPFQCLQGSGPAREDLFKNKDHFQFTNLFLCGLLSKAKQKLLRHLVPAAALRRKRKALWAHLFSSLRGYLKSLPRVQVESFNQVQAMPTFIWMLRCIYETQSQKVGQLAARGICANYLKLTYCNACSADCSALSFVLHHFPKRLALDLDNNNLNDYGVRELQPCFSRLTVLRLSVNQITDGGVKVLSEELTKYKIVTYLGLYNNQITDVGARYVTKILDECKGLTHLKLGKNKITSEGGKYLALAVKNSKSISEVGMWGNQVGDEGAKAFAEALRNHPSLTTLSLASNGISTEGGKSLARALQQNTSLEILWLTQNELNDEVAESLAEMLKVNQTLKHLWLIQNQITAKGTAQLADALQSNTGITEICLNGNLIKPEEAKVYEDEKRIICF

[20] = target: Cyclin-dependent kinase 5/CDK5 activator 1 (Homo sapiens, UniProt Q00535); assay: blockade of human CDK5 activity – biochemical, cherry-picked samples, set 2, dose response (AID 504545)
Cyclin-dependent kinase 5/CDK5 activator 1, sequence (Q00535 whole entry): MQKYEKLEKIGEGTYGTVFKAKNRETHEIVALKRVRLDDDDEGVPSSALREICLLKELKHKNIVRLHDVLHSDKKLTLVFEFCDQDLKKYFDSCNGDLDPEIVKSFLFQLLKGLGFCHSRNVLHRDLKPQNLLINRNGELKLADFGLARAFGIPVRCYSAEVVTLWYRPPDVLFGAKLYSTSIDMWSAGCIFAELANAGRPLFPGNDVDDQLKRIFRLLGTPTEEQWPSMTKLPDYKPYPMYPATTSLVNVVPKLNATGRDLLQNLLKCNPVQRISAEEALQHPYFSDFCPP
Cyclin-dependent kinase 5/CDK5 activator 1, sequence (Q15078 whole entry, further chain): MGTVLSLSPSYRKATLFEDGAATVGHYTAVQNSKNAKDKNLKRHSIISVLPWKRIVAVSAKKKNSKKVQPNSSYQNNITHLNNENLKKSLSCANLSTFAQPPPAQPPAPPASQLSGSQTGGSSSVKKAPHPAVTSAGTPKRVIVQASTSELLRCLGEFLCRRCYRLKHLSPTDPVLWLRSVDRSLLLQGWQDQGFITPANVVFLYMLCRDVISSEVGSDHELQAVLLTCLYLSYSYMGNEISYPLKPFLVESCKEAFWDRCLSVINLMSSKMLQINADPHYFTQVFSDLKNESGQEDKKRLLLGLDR

Procathepsin L, sequence (P07711 whole entry): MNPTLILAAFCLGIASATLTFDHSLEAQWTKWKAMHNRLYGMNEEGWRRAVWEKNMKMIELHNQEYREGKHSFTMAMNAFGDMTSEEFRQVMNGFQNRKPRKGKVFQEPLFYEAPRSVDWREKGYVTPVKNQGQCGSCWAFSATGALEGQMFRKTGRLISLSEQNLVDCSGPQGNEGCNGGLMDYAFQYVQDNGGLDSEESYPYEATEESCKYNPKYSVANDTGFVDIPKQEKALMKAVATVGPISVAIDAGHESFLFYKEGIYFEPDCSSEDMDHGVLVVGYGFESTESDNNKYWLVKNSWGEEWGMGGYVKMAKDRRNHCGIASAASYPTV

For `COCCNC(=O)NC1(C(F)(F)F)Oc2ccc(Cl)cc2O1` (configuration not stated), the IC50 (Procathepsin L) was > 59.6 µM (not active), the IC50 (Aspartyl aminopeptidase) was 2.12 µM (active) and the IC50 [1] was 6.75 µM (active). For the same molecule, the AC50 [2] was 6.47 µM (active).

With `CCOc1ccc(S(=O)(=O)NCC2CCCO2)c2cccnc12` (configuration not stated) the EC50 [3] was > 10 µM (not active).

For `COc1cc(C(C#N)N2CCOCC2)ccc1O` (configuration not stated), the EC50 [4] was > 55.7 µM (not active) and the EC50 [5] was > 55.7 µM (not active).

For `CC1(C)[C@@H]2C(=O)N(c3ccc(NC(=O)c4ccccn4)cc3Cl)C(=O)[C@@H]21`, the EC50 [6] was 0.69 µM (active).

In the case of `CCOC(=O)/C=C1\SCC(=O)N1CC(=O)NC1CCCCC1`, the EC50 (T-cell) is reported as 7.17 µM (active).

For `O=C(CCC(=O)Nc1ccc(Cl)cc1Cl)N/N=C/c1ccc([N+](=O)[O-])o1`, the EC50 (cells [7]) was 0.007 µM (active), the CC50 [8] was > 20 µM (active) and the AC50 (INS1) was 15.2 µM (active). The IC50 (cells [9]) was 0.85 µM (active), the EC50 [10] was < 0.1 µM (active) and the EC50 [11] was > 50 µM (active). The AC50 (Trypanosoma cruzi) was < 0.003 µM (active), the EC50 [12] was 2.3 µM (active) and the AC50 [13] was 11.4 µM (active). For the same molecule, the CC50 [14] was 17.4 µM (active), the CC50 [15] was 14 µM (active) and the EC50 [16] was 8.66 µM (inconclusive).

In the case of `O=[N+]([O-])c1ncccc1OCCOc1ccc(Cl)cc1Cl`, the EC50 [17] is reported as 29.8 µM (inactive).

With `CCC1CCc2c(sc(NC(=O)c3ccccc3Br)c2C(=O)OC)C1` (configuration not stated) the IC50 (HEK293) was > 20 µM (inactive), the IC50 [18] was > 20 µM (inactive) and the IC50 (Tumor necrosis factor) was > 20 µM (inactive). For the same molecule, the IC50 [19] was > 20 µM (inactive).

For `Cc1nn(-c2ccc(Cl)cn2)c2c1C(=O)CC(C)(C)C2Br` (configuration not stated), the AC50 [20] was 89.2 µM (active).
